From patent US8410161B2, “Thioxanthone ring system derivatives” (National Defense Medical Center, priority 2010, dated 2013)

How the values were obtained:
BT-549 = test: NCI in vitro DTP human cell line screen, BT-549; assay type: cell-based; conditions: Breast Cancer, 1.00E−5 Molar
Description: (§1) Then, a cell toxicity assay of the cancer lines made by National Cancer Institute will be discussed as follows. The cell toxicity assay is performed by choosing ten compounds (existing certification numbers) from the 59 compounds disclosed in the present invention first.

NCI-H322M = test: NCI in vitro DTP human cell line screen, NCI-H322M; assay type: cell-based; conditions: Non-Small Cell Lung Cancer, 1.00E−5 Molar
Description: as §1

CAKI-1 = test: NCI in vitro DTP human cell line screen, CAKI-1; assay type: cell-based; conditions: Renal Cancer, 1.00E−5 Molar
Description: as §1

MDA-MB-468 = test: NCI in vitro DTP human cell line screen, MDA-MB-468; assay type: cell-based; conditions: Breast Cancer, 1.00E−5 Molar
Description: as §1

HT29 = test: NCI in vitro DTP human cell line screen, HT29; assay type: cell-based; conditions: Colon Cancer, 1.00E−5 Molar
Description: as §1

NCI-H23 = test: NCI in vitro DTP human cell line screen, NCI-H23; assay type: cell-based; conditions: Non-Small Cell Lung Cancer, 1.00E−5 Molar
Description: as §1

MALME-3M = test: NCI in vitro DTP human cell line screen, MALME-3M; assay type: cell-based; conditions: Melanoma, 1.00E−5 Molar
Description: as §1

[1] = MTT assay, HEL299 fibroblast; assay type: cell-based; conditions: human
Excerpt: Please refer to FIG. 4C, various cell viabilities of the HEL299 cell lines can be obtained through the MTT assay while the compounds No. 1˜30 are used to treat HEL299 cell lines, wherein HEL299 cell lines are fibroblast.

COLO 205 = test: NCI in vitro DTP human cell line screen, COLO 205; assay type: cell-based; conditions: Colon Cancer, 1.00E−5 Molar
Description: as §1

HCC-2998 = test: NCI in vitro DTP human cell line screen, HCC-2998; assay type: cell-based; conditions: Colon Cancer, 1.00E−5 Molar
Description: as §1

KM12 = test: NCI in vitro DTP human cell line screen, KM12; assay type: cell-based; conditions: Colon Cancer, 1.00E−5 Molar
Description: as §1

UO-31 = test: NCI in vitro DTP human cell line screen, UO-31; assay type: cell-based; conditions: Renal Cancer, 1.00E−5 Molar
Description: as §1

LOX IMVI = test: NCI in vitro DTP human cell line screen, LOX IMVI; assay type: cell-based; conditions: Melanoma, 1.00E−5 Molar
Description: as §1

SK-OV-3 = test: NCI in vitro DTP human cell line screen, SK-OV-3; assay type: cell-based; conditions: Ovarian Cancer, 1.00E−5 Molar
Description: as §1

MCF7 = test: NCI in vitro DTP human cell line screen, MCF7; assay type: cell-based; conditions: Breast Cancer, 1.00E−5 Molar
Description: as §1

T-47D = test: NCI in vitro DTP human cell line screen, T-47D; assay type: cell-based; conditions: Breast Cancer, 1.00E−5 Molar
Description: as §1

SF-295 = test: NCI in vitro DTP human cell line screen, SF-295; assay type: cell-based; conditions: CNS Cancer, 1.00E−5 Molar
Description: as §1

MOLT-4 = test: NCI in vitro DTP human cell line screen, MOLT-4; assay type: cell-based; conditions: Leukemia, 1.00E−5 Molar
Description: as §1

TK-10 = test: NCI in vitro DTP human cell line screen, TK-10; assay type: cell-based; conditions: Renal Cancer, 1.00E−5 Molar
Description: as §1

NCI/ADR-RES = test: NCI in vitro DTP human cell line screen, NCI/ADR-RES; assay type: cell-based; conditions: Ovarian Cancer, 1.00E−5 Molar
Description: as §1

A control cell lines = test: MTT assay, A control cell lines (lung cancer cell); assay type: cell-based
Excerpt: Please refer to Table 1 and FIGS. 4A-4C. According to a MTT assay (Table 1), various cell viabilities of the A control cell lines can be obtained and illustrated in FIG. 4A while the compounds No. 2˜30 are used to treat A control cell lines, wherein A control cell lines are lung cancer cell.

U251 = test: NCI in vitro DTP human cell line screen, U251; assay type: cell-based; conditions: CNS Cancer, 1.00E−5 Molar
Description: as §1

SW-620 = test: NCI in vitro DTP human cell line screen, SW-620; assay type: cell-based; conditions: Colon Cancer, 1.00E−5 Molar
Description: as §1

HCT-116 = test: NCI in vitro DTP human cell line screen, HCT-116; assay type: cell-based; conditions: Colon Cancer, 1.00E−5 Molar
Description: as §1

HL-60(TB) = test: NCI in vitro DTP human cell line screen, HL-60(TB); assay type: cell-based; conditions: Leukemia, 1.00E−5 Molar
Description: as §1

SF-268 = test: NCI in vitro DTP human cell line screen, SF-268; assay type: cell-based; conditions: CNS Cancer, 1.00E−5 Molar
Description: as §1

HS 578-T = test: NCI in vitro DTP human cell line screen, HS 578-T; assay type: cell-based; conditions: Breast Cancer, 1.00E−5 Molar
Description: as §1

PC-3 = test: NCI in vitro DTP human cell line screen, PC-3; assay type: cell-based; conditions: Prostate Cancer, 1.00E−5 Molar
Description: as §1

MDA-MB-435 = test: NCI in vitro DTP human cell line screen, MDA-MB-435; assay type: cell-based; conditions: Melanoma, 1.00E−5 Molar
Description: as §1

HOP-92 = test: NCI in vitro DTP human cell line screen, HOP-92; assay type: cell-based; conditions: Non-Small Cell Lung Cancer, 1.00E−5 Molar
Description: as §1

K562 = test: NCI in vitro DTP human cell line screen, K562; assay type: cell-based; conditions: Leukemia, 1.00E−5 Molar
Description: as §1

OVCAR-8 = test: NCI in vitro DTP human cell line screen, OVCAR-8; assay type: cell-based; conditions: Ovarian Cancer, 1.00E−5 Molar
Description: as §1

IGROV1 = test: NCI in vitro DTP human cell line screen, IGROV1; assay type: cell-based; conditions: Ovarian Cancer, 1.00E−5 Molar
Description: as §1

OVCAR-5 = test: NCI in vitro DTP human cell line screen, OVCAR-5; assay type: cell-based; conditions: Ovarian Cancer, 1.00E−5 Molar
Description: as §1

HCT-15 = test: NCI in vitro DTP human cell line screen, HCT-15; assay type: cell-based; conditions: Colon Cancer, 1.00E−5 Molar
Description: as §1

OVCAR-4 = test: NCI in vitro DTP human cell line screen, OVCAR-4; assay type: cell-based; conditions: Ovarian Cancer, 1.00E−5 Molar
Description: as §1

NCI-H226 = test: NCI in vitro DTP human cell line screen, NCI-H226; assay type: cell-based; conditions: Non-Small Cell Lung Cancer, 1.00E−5 Molar
Description: as §1

NCI-H522 = test: NCI in vitro DTP human cell line screen, NCI-H522; assay type: cell-based; conditions: Non-Small Cell Lung Cancer, 1.00E−5 Molar
Description: as §1

RPMI-8226 = test: NCI in vitro DTP human cell line screen, RPMI-8226; assay type: cell-based; conditions: Leukemia, 1.00E−5 Molar
Description: as §1

MDA-MB-231/ATCC = test: NCI in vitro DTP human cell line screen, MDA-MB-231/ATCC; assay type: cell-based; conditions: Breast Cancer, 1.00E−5 Molar
Description: as §1

M14 = test: NCI in vitro DTP human cell line screen, M14; assay type: cell-based; conditions: Melanoma, 1.00E−5 Molar
Description: as §1

SF-539 = test: NCI in vitro DTP human cell line screen, SF-539; assay type: cell-based; conditions: CNS Cancer, 1.00E−5 Molar
Description: as §1

60 cancer lines = test: NCI cell toxicity assay of 60 cancer lines, whole panel summary; assay type: cell-based, human; conditions: mean over all cell lines; 1.00E−5 Molar
Description: as §1

SK-MEL-5 = test: NCI in vitro DTP human cell line screen, SK-MEL-5; assay type: cell-based; conditions: Melanoma, 1.00E−5 Molar
Description: as §1

NCI-H460 = test: NCI in vitro DTP human cell line screen, NCI-H460; assay type: cell-based; conditions: Non-Small Cell Lung Cancer, 1.00E−5 Molar
Description: as §1

786-0 = test: NCI in vitro DTP human cell line screen, 786-0; assay type: cell-based; conditions: Renal Cancer, 1.00E−5 Molar
Description: as §1

ACHN = test: NCI in vitro DTP human cell line screen, ACHN; assay type: cell-based; conditions: Renal Cancer, 1.00E−5 Molar
Description: as §1

EKVX = test: NCI in vitro DTP human cell line screen, EKVX; assay type: cell-based; conditions: Non-Small Cell Lung Cancer, 1.00E−5 Molar
Description: as §1

SNB-75 = test: NCI in vitro DTP human cell line screen, SNB-75; assay type: cell-based; conditions: CNS Cancer, 1.00E−5 Molar
Description: as §1

SR = test: NCI in vitro DTP human cell line screen, SR; assay type: cell-based; conditions: Leukemia, 1.00E−5 Molar
Description: as §1

OVCAR-3 = test: NCI in vitro DTP human cell line screen, OVCAR-3; assay type: cell-based; conditions: Ovarian Cancer, 1.00E−5 Molar
Description: as §1

SK-MEL-2 = test: NCI in vitro DTP human cell line screen, SK-MEL-2; assay type: cell-based; conditions: Melanoma, 1.00E−5 Molar
Description: as §1

UACC-257 = test: NCI in vitro DTP human cell line screen, UACC-257; assay type: cell-based; conditions: Melanoma, 1.00E−5 Molar
Description: as §1

SK-MEL-28 = test: NCI in vitro DTP human cell line screen, SK-MEL-28; assay type: cell-based; conditions: Melanoma, 1.00E−5 Molar
Description: as §1

DU145 = test: NCI in vitro DTP human cell line screen, DU145; assay type: cell-based; conditions: Prostate Cancer, 1.00E−5 Molar
Description: as §1

A3 cell lines = test: MTT assay, A3 cell lines (lung cancer stem cell); assay type: cell-based
Excerpt: Please to FIG. 4B, various cell viabilities of the A3 cell lines can be obtained through the MTT assay and illustrated in FIG. 4B while the compounds No. 1˜30 are used to treat A3 cell lines, wherein A3 cell lines are lung cancer stem cell.

CCRF-CEM = test: NCI in vitro DTP human cell line screen, CCRF-CEM; assay type: cell-based; conditions: Leukemia, 1.00E−5 Molar
Description: as §1

What does the source list for `Cc1cccc(C)c1Sc1ccc2c(=O)c3ccccc3sc2c1Cl` [No. 12, 4-Chloro-3-(2,6-dimethylphenylthio)-9H-thioxanthen-9-one]?
Growth Percent (BT-549): 105.28%; Growth Percent (NCI-H322M): 113.78%; Growth Percent (CAKI-1): 89.35%; Growth Percent (MDA-MB-468): 113.20%; Growth Percent (HT29): 103.86%; Growth Percent (NCI-H23): 93.96%; Growth Percent (MALME-3M): 100.81%; viability [1]: 101 ± 9.52%; Growth Percent (COLO 205): 110.46%; Growth Percent (HCC-2998): 103.54%; Growth Percent (KM12): 113.08%; Growth Percent (UO-31): 87.03%; Growth Percent (LOX IMVI): 105.37%; Growth Percent (SK-OV-3): 111.32%; Growth Percent (MCF7): 94.01%; Growth Percent (T-47D): 97.56%; Growth Percent (SF-295): 98.15%; Growth Percent (MOLT-4): 104.33%; Growth Percent (TK-10): 99.22%; Growth Percent (NCI/ADR-RES): 105.14%; cell viabilities of A control cell lines (MTT assay) (A control cell lines): 103 ± 5.86%; Growth Percent (U251): 95.70%; Growth Percent (SW-620): 105.40%; Growth Percent (HCT-116): 105.21%; Growth Percent (HL-60(TB)): 109.07%; Growth Percent (SF-268): 98.33%; Growth Percent (HS 578-T): 107.64%; Growth Percent (PC-3): 98.56%; Growth Percent (MDA-MB-435): 107.09%; Growth Percent (HOP-92): 88.79%; Growth Percent (K562): 97.86%; Growth Percent (OVCAR-8): 96.86%; Growth Percent (IGROV1): 98.49%; Growth Percent (OVCAR-5): 96.86%; Growth Percent (HCT-15): 99.05%; Growth Percent (OVCAR-4): 107.51%; Growth Percent (NCI-H226): 109.77%; Growth Percent (NCI-H522): 100.28%; Growth Percent (RPMI-8226): 101.60%; Growth Percent (MDA-MB-231/ATCC): 108.12%; Growth Percent (M14): 105.63%; Growth Percent (SF-539): 106.48%; Growth Percent, Mean (60 cancer lines): 102.52%; Growth Percent (SK-MEL-5): 104.77%; Growth Percent (NCI-H460): 110.85%; Growth Percent (786-0): 108.98%; Growth Percent (ACHN): 103.68%; Growth Percent (EKVX): 103.89%; Growth Percent (SNB-75): 90.00%; Growth Percent (SR): 95.93%; Growth Percent (OVCAR-3): 113.05%; Growth Percent (SK-MEL-2): 108.94%; Growth Percent (UACC-257): 92.09%; Growth Percent (SK-MEL-28): 110.00%; Growth Percent (DU145): 109.56%; cell viabilities of A3 cell lines (MTT assay) (A3 cell lines): 102 ± 9.52%; Growth Percent (CCRF-CEM): 88.07%
